Laboratory results reported in patent publication US8574604B2, “Methods and compositions for the delivery of biologically active agents” (Interface Biologics, Inc., priority 2005, dated 2013).

Assay: UV/Vis measurement of Methyl Violet complexation by CyD-OF
Type: physicochemical
Conditions: Methyl Violet 0.01 mg/mL in DMSO; decrease in absorbance indicates complexation
Protocol: CyD-OF (3a) ([…]) was dissolved in DMSO (75 μL). A solution of Methyl Violet (MV, 2.8 mg) in DMSO (28 mL) was prepared at 0.1 mg/mL. One mL of Methyl Violet solution was further diluted with DMSO (10 mL) to form a 0.01 mg/mL solution. The CyD-OF solution (75 μL) was added dropwise to a solution of MV (500 μL) in a 4 mL glass vial over the course of ten minutes. This solution was sealed and left in the dark for 12 hours. A UV/Vis measurement of the Methyl Violet solution at 0.01 mg/mL was taken (A (591 nm)=0.96) as control. The UV/Vis spectrum of the CyD-OF was measured at A (591 nm)=0.63, indicating the intensity of the guest molecules evidently to change upon the addition of molecular receptors. Upon complexation the absorbance decreased, confirming the formation of a complex. A control solution was also prepared.

In the case of Methyl Violet, the “UV/Vis absorbance A (591 nm)” value is reported as 0.96.
